Source: article PMC7844219, “Antifibrotic effect of novel neutrophil gelatinase-associated lipocalin inhibitors in cardiac and renal disease models” (Scientific Reports, 2021)
One block for each molecule: values may come before it.

Columns and labels:
[1] = biological target: T1, hNGAL (Homo sapiens, UniProt P80188); assay: hNGAL-induced IL6 and Col I secretion in human cardiac fibroblasts (ELISA); assay type: cell-based; parameters: % inhibition versus hNGAL on IL-6 secretion: concentration or dose not given beside the values; conditions: for IL-6 secretion: hNGAL-treated human cardiac fibroblasts, mean ± SEM
T1 construct: purchased R&D Systems
Procedure: (§1) Primary human cardiac fibroblasts (HCF) were obtained from Promocell (Heidelberg, Germany) and maintained in Fibroblast Media 3 following manufacturer’s instructions (Promocell). Cells were used between passages 5 and 7. Cells were stimulated with recombinant hNGAL (500 ng/mL, R&D Systems) or with TGFβ (10 ng/mL, R&D Systems) for 24 h. To assess cell proliferation the MTT test was used following provider’s instructions (Roche). For protein analysis. Primary Mouse Kidney Fibroblasts (MKF) were isolated from Wild Type (WT) mice. Briefly, 8 weeks old mice were sacrificed by cervical dislocation and kidneys were cleaned and rinsed in cold DPBS (Dulbecco's Phosphate-Buffered Saline). The renal cortex was minced and incubated in Dulbecco’s modified eagle medium/Nutrient mixture F-12 (DMEM/F12, Sigma) containing 1 mg/mL collagenase A (Roche) during 25 min at 37 °C. The digestion was inactivated by adding culture medium (DMEM/F12 + 10% FBS) then the cell suspension was passed through a 100-μm cell strainer. After centrifugation, the pellet (containing MKF) was diluted with culture medium then plated in 75 cm^2 culture flask. After 24 h MKF were washed with DPBS before replacement of fresh culture medium. Thereafter, culture medium was changed every 48 h. Once 70–80% confluent, MKF were trypsinized and plated in 12 or 6-well plates. For experimental use, MKF were starved with culture medium containing only 3% FBS. MKF were treated with mNGAL (500 ng/mL, R&D Systems) or with TGFβ (10 ng/mL, R&D Systems) for 6 h for gene expression analysis.
IL6 and collagen type I concentrations were measured in cardiac tissue and cell supernatants by ELISA according to the manufacturer's instructions (R&D Systems).

[2] = Chemical stability; assay type: physicochemical; conditions: Table S5
Procedure: (§2) Several parameters have been evaluated to determine ADME-Tox profile of the compounds. Two specific toxicity assays have been performed to assess hepatoxicity and cardiotoxicity. Hepatotoxicity was evaluated in isolated hepatocytes from swiss mice and determined by the thiazolyl blue tetrazolium bromide colorimetric assay (sigma, St Louis, MO, USA). Cardiotoxicity was evaluated using the commercially available Predictor hERG fluorescence polarization kit (Thermo Fisher Scientific, Illinois, USA). Several absorption, distribution, metabolism, and excretion (ADME) assays have been carried out. The following experiments were undertaken: stability in human microsomes, binding to human plasma protein, and CYP3A4 inhibition assay (Vivid CYP3A4 assay, Thermo Fisher Scientific, Illinois, USA). Physico-chemical properties were also assessed such as aqueous solubility and chemical stability.

[3] = system: isolated hepatocytes from swiss mice; assay: Hepatotoxicity, thiazolyl blue tetrazolium bromide (MTT) colorimetric assay; assay type: cell-based, mouse
Procedure: as §2

[4] = biological target: T2, hERG channel (Homo sapiens, UniProt Q12809); assay: Cardiotoxicity, Predictor hERG fluorescence polarization kit; assay type: binding
T2 construct: purchased Thermo Fisher Scientific
Procedure: as §2

[5] = biological target: T3, CYP3A4 (Homo sapiens, UniProt P08684); assay: CYP3A4 inhibition assay (Vivid CYP3A4 assay); assay type: in vitro ADME
T3 construct: purchased Thermo Fisher Scientific
Procedure: as §2

[6] = system: human plasma protein; assay: Binding to human plasma protein; assay type: in vitro ADME
Procedure: as §2

[7] = Aqueous solubility; assay type: physicochemical
Procedure: as §2

[8] = biological target: T1, hNGAL; assay: Cell proliferation (MTT) in hNGAL-treated human cardiac fibroblasts; assay type: cell-based
Procedure: as §1
Cell proliferation was assessed using the MTT Proliferation Assay (Sigma).

[9] = biological target: T1, hNGAL; assay: hNGAL-induced intracellular profibrotic protein levels in human cardiac fibroblasts (Western blot); assay type: cell-based; parameters: % inhibition versus hNGAL on Col I protein level / % inhibition versus hNGAL on Col III protein level / % inhibition versus hNGAL on Fibronectin protein level / % inhibition versus hNGAL on Galectin 3 protein level: concentration or dose not given beside the values
Procedure: as §1
Total protein aliquots of 20 μg were prepared from cardiac homogenates and HCF and electrophoresed on SDS polyacrylamide gels and transferred to Hybond-c Extra nitrocellulose membranes (Amersham Biosciences). Membranes were incubated with primary antibodies for: Collagen I (Santa Cruz; dilution 1:500), Collagen type III (Santa Cruz; dilution 1:500), fibronectin (Millipore, 1:500), Galectin-3 (Thermo, 1:1000), α-SMA (Sigma, 1:1000), CTGF (Santa Cruz, 1:200), CD68 (Abcam, 1:500), CD80 (Santa Cruz, 1:500), CD86 (Santa Cruz, 1:500). […] After densitometric analyses, optical density values were expressed as arbitrary units. Results are expressed as an n-fold increase over the values of the control group in densitometric arbitrary units.

[10] = Table S4, second generation compounds and parents, Control 1.00, NGAL 1.45
[11] = Table S4, second generation compounds and parents, human cardiac fibroblasts
[12] = 10 µM, human cardiac fibroblasts, Fig. 1C
[13] = Table S2, human cardiac fibroblasts

T1 sequence (P80188 21-198): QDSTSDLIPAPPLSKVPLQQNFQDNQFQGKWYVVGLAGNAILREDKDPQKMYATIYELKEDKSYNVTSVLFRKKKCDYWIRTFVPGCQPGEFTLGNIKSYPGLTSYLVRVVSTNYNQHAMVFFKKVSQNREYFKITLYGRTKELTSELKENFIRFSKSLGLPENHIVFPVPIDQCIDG
T3 sequence (P08684 whole entry): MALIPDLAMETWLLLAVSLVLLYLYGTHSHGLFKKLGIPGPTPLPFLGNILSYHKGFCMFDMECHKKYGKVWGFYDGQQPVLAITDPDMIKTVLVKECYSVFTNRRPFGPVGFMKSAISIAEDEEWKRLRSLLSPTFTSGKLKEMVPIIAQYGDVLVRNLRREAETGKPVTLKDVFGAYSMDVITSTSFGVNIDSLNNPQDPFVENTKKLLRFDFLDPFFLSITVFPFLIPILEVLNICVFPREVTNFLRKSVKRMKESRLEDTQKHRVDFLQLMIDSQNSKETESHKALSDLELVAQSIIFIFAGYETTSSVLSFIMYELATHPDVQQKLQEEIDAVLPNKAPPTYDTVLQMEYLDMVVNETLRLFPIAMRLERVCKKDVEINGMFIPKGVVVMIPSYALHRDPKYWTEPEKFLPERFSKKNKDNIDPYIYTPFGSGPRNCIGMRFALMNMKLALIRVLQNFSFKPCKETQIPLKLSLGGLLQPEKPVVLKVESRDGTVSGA
T2 sequence (Q12809 whole entry): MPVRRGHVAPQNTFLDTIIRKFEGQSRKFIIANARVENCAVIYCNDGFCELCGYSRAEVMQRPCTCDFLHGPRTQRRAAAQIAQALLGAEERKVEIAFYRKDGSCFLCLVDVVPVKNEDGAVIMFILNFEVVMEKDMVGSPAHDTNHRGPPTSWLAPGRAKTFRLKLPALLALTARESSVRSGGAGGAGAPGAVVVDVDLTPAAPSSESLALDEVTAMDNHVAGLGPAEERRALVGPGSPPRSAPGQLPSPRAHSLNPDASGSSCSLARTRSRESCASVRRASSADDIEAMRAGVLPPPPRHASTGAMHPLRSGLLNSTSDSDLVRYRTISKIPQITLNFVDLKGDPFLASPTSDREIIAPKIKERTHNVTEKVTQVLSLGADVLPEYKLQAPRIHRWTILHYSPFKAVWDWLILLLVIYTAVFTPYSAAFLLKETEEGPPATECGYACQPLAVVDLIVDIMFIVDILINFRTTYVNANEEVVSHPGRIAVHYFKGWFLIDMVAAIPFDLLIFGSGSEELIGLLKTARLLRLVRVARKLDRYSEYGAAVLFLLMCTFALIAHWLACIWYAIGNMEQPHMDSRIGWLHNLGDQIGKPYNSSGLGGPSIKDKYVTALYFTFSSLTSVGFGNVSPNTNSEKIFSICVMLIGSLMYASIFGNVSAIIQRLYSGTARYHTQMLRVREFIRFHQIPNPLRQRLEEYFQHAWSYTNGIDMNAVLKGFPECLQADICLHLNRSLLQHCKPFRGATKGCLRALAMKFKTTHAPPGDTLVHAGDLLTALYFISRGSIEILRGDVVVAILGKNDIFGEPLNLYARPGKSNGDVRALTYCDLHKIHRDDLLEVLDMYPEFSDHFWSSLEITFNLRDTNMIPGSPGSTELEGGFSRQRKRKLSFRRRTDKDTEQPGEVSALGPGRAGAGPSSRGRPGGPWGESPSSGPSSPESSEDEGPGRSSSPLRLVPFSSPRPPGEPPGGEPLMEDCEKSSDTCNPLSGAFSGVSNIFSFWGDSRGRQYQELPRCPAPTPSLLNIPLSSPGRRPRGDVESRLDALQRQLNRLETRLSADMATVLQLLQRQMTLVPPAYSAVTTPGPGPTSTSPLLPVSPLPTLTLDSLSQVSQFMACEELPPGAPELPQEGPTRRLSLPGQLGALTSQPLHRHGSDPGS

IL-6 secretion [1, 10]: 0.93± 0.03 | % inhibition versus hNGAL on IL-6 secretion [1, 11]: 35.9%
Compound: CC(=O)c1cccc(S(=O)(=O)NCc2ccccc2-c2ccsc2)c1 [GPZ863205]

Chemical Stability % [2]: 92.2% | CYP3A4 enzyme activity inhibited in a competition assay [5]: 32% | CyP 3A4 Inhibition % (100= no inhibition) ([5]; Table S5): 68.07 ± 1.52% | Increase in IL6 secretion induced by NGAL ([1]; 1 µM, human cardiac fibroblasts, Fig. S3): did not prevent | NGAL-induced Col I secretion, in words [1, 12]: fully inhibited | NGAL-induced IL6 secretion, in words [1, 12]: fully inhibited | IL-6 secretion ([1]; Table S1, first generation compounds, Control 1.0 ± 0.1, NGAL 2.21 ± 0.2): 0.99 ± 0.3 | % inhibition versus hNGAL on IL-6 secretion ([1]; Table S1, first generation compounds, human cardiac fibroblasts): 55.2% | IL-6 secretion [1, 10]: 0.72 ± 0.02 | % inhibition versus hNGAL on IL-6 secretion [1, 11]: 50.4% | Inhibitor effect on hNGAL-induced IL6 secretion, in words ([1]; human cardiac fibroblasts, text on Tables S1 and S4): important inhibitor effect | Plasma protein binding (PPB), in words [6]: within an acceptance range | hPPB% ([6]; Table S5, human plasma protein binding): 89.11% | Solubility in aqueous buffers, in words [7]: mild solubility problems | Solubility test [7]: 63% | Aquous solubility % ([7]; Table S5): 63.46% | hNGAL-induced cell proliferation, in words ([8]; 10 µM, Fig. 1E): blocked | hNGAL-induced expression of intracellular profibrotic proteins (Col I, Col III, fibronectin, Gal3), in words ([9]; 10 µM, human cardiac fibroblasts, Fig. 1D): blocked | Col III synthesis (protein level) ([9]; Table S2, hNGAL-treated human cardiac fibroblasts, Control 1.0, NGAL 1.67, mean ± SEM): 1.05 ± 0.1 | Fibronectin synthesis (protein level) ([9]; Table S2, hNGAL-treated human cardiac fibroblasts, Control 1.0, NGAL 1.8, mean ± SEM): 0.62 ± 0.1 | Col I synthesis (protein level) ([9]; Table S2, hNGAL-treated human cardiac fibroblasts, Control 1.0, NGAL 2.03, mean ± SEM): 1.27 ± 0.1 | Galectin-3 synthesis (protein level) ([9]; Table S2, hNGAL-treated human cardiac fibroblasts, Control 1.0, NGAL 2.1, mean ± SEM): 1.0 ± 0.2 | % inhibition versus hNGAL on Col I protein level [9, 13]: 37.5% | % inhibition versus hNGAL on Col III protein level [9, 13]: 37.1% | % inhibition versus hNGAL on Fibronectin protein level [9, 13]: 65.5% | % inhibition versus hNGAL on Galectin 3 protein level [9, 13]: 52.3%
Compound: CCS(=O)(=O)c1ccc2oc(SCc3cn4c(C)cc(C)nc4n3)nc2c1 [GPZ058225]
Hepatotoxicity (MTT) [3]: > 0.1 mM | Hepatotoxicity ([3]; Table S5, MTT): > 100 µM | Cardiotoxicity (hERG predictor assay), in words [4]: did not block the hERG channel | Dose–response on proliferation induced by NGAL ([8]; Fig. S2): able to block the proliferative effects of NGAL at 1 and 10 µM, but not at lower concentrations

IL-6 secretion [1, 10]: 0.83± 0.02 | % inhibition versus hNGAL on IL-6 secretion [1, 11]: 42.8%
Compound: CC(=O)c1cccc(S(=O)(=O)NCc2ccccc2Cn2cccn2)c1 [GPZ505884]

IL-6 secretion [1, 10]: 0.94 ± 0.03 | % inhibition versus hNGAL on IL-6 secretion [1, 11]: 35.2%
Compound: Cc1cc(C)n2cc(CSc3nc4ccccc4[nH]3)nc2n1 [GPZ743042]

IL-6 secretion [1, 10]: 0.93± 0.02 | % inhibition versus hNGAL on IL-6 secretion [1, 11]: 35.9%
Compound: CCN1CCN(Cc2ccccc2CNS(=O)(=O)c2cccc(C(C)=O)c2)CC1 [GPZ913629]

IL-6 secretion [1, 10]: 0.69± 0.02 | % inhibition versus hNGAL on IL-6 secretion [1, 11]: 52.4%
Compound: CC(=O)c1ccc(S(=O)(=O)Nc2ccccc2-n2cccn2)cc1 [GPZ478519]

IL-6 secretion [1, 10]: 0.64± 0.02 | % inhibition versus hNGAL on IL-6 secretion [1, 11]: 55.9%
Compound: CC(=O)c1cccc(S(=O)(=O)NCc2ccccc2-c2ccc(CN(C)C)cc2)c1 [GPZ642292]

IL-6 secretion [1, 10]: 0.88± 0.04 | % inhibition versus hNGAL on IL-6 secretion [1, 11]: 39.3%
Compound: N#Cc1cccc(S(=O)(=O)NCc2cccc(-n3cccn3)c2)c1 [GPZ778195]

IL-6 secretion [1, 10]: 0.86± 0.02 | % inhibition versus hNGAL on IL-6 secretion [1, 11]: 40.1%
Compound: O=C(Nc1nc2cc(F)c(F)cc2s1)c1cn2cccnc2n1 [GPZ278618]
